In series [1] the test system is MDA-MB-468 triple negative breast cancer cells. The experiment in a line: MTS cytotoxicity assay in MDA-MB-468 triple negative breast cancer cells. As to conditions: for IC50: Homo sapiens, MDA-MB-468, 72 hours, mean ± SD n = 3; for effect on MDA-MB 468 TNBC cell viability: 10, 50 and 100 μM for 24, 48 and 72 hours, MTS. Type of series: cell-based. As to the method:
The assay was performed as follows.
Derivatives were dosed at 10, 50 and 100 μM for 24, 48 and 72 hours and cell viability measured by MTS assay (FIG. 5).
Background: Formazan colour is commonly taken as a measure of viable cells.

For series [2], the system named is Mitochondrial respiratory complex II (CII). As to conditions: literature, cited from earlier work.
The subject of series [3] is 22Rv1 prostate cancer cells. The experiment in a line: MTS cytotoxicity assay in 22Rv1 prostate cancer cells. As to conditions: Homo sapiens; for cytotoxicity at 100 µM: 22Rv1, 48 h, read-out: reduction of 22Rv1 cell viability. As to the method:
(§1) The assay was performed as follows. To determine the cell growth inhibition ability of the synthesized compounds the (3-(4,5-dimethylthiazol-2-yl)-5-(3-carboxymethoxyphenyl)-2-(4-sulfophenyl)-2H-tetrazolium) (MTS) assay used according to the manufacturer's recommended protocol. Stock solutions of the synthesized compounds were prepared in DMSO. Cells were seeded at a density of 1×10^5 cells in 96-well plates. After 24 hours, cells were treated at the indicated concentrations of test compounds, limiting the final DMSO concentration to less than 1%. After incubation at 37° C. in an environment of 5% CO2 for 48-72 hours, 10 μL of MTS reagent (CellTiter 96© AQueous One Solution Reagent) was added to each well and incubated at the above mentioned conditions for 2-4 hr. Absorbance was recorded at 490 nm on a BioTek Synergy Mx multimode plate reader and the viability of cells were plotted as percentage of controls.

Series [4] relates to human embryonic kidney (HEK293) cells. Nature of the series: MTS cytotoxicity assay in HEK293 cells. Type of series: cell-based. As to conditions: 72 hours, mean ± SD n = 3. Here is the method: as §1
Cytotoxicity was also evaluated by using the low tumorigenic HEK293 cells at 50 μM concentration.

The target of series [5] is T1, Mitochondrial respiratory complex II (Rattus norvegicus, UniProt P21913+Q641Z9+Q6PCT8+Q920L2).
T1 construct: measured spectrophotometrically using isolated rat heart mitochondria; from tissue; host or cells: rat heart mitochondria / sub-mitochondrial particles
Nature of the series: Mitochondrial respiratory complex II inhibition assay. As to conditions: for IC50: read-out: CII IC50; for inhibition at 100 µM: read-out: inhibition of CII. Type of series: biochemical. As to the method: The assay was performed as follows. Mitochondria were isolated either from fresh rat hearts or by differential centrifugation in sucrose-based buffer as previously described.^24 Complex II enzymatic activity was determined spectrophotometrically as the rate of succinate-driven, co-enzyme Q2-linked reduction of dichlorophenolindophenol (DCPIP).^49 Mitochondria or sub-mitochondrial particles were incubated in phosphate buffer (pH 7.4) containing 40 μM DCPIP, 1 mM KCN, 10 μM rotenone, and 50 μM co-enzyme Q2. The rate of reduction of DCPIP to DCPIPH2 was followed at […] (ε=21,000 M-1). Varying amounts of succinate and inhibitors were used to determine an IC50 value. At the end of each run thenoyltrifluoroacetone (1 mM) was added and the residual TTFA-insensitive rate subtracted.

Series [6] relates to VEGF-induced proliferation of HUVEC cells. The experiment in a line: VEGF-induced HUVEC proliferation, MTT assay. Type of series: cell-based, human. As to conditions: VEGF 10 ng/mL; for inhibition of VEGF-induced HUVEC proliferation (in words): 20 μM; for inhibition at 20 µM: Homo sapiens, read-out: % Inhibition of Proliferation. As to the method:
The assay was performed as follows. Vascular endothelial growth factor (VEGF, Cat #SRP3182) was purchased from Sigma. […] Stock solutions of all compounds were prepared in DMSO and were serially diluted for cell culture treatment maintaining the final DMSO concentration at less than 1%. Cell proliferation of HUVECs was evaluated through the MTT (3-[4, 5-dimethylthiazol-2-yl]-2, 5-dimethyltetrazolium bromide) colorimetric assay, as previously described.^28 The HUVECs were seeded at a density of 10,000 cells/well in 24 well plates in serum-containing medium and cultured overnight. Cells were starved with 300 μL of assay media (0.1% BSA+0.1% FBS in basal medium) for 24 h. Then, cells were treated with 500 μL of assay medium (control group), VEGF (10 ng/mL, positive control group) or VEGF along with compounds (20 μM). After 48 h of culture, 50 μL of MTT stock (5 mg/mL in PBS) was added to each well and incubated for 2 h at 37° C. to allow the formation of dark blue formazan crystals in the metabolically active cells. The medium was removed, the cells were washed with PBS (pH 7.4), and 100 μL of acidified isopropanol (0.33 mL HCl in 100 mL isopropanol) was added to each well and incubated for 5 min with thorough agitation to solubilize the formazan crystals. An equal volume of the solution was transferred to a 96-well plate and the absorbance was immediately measured using a microplate reader at a wavelength of 570 nm.

Setting [7] is: 100 μM, relative to DMSO control.
Setting [8] is: HUVEC, 48 h, 20 μM compound, HUVEC, 48 h, relative to VEGF treated cells, mean ± SEM n = 3.

Results on 17 compounds are retold here after patent publication US20230219912A1, “HALOGENATED BENZOTHIADIAZINES FOR THE TREATMENT OF CANCER” (BOARD OF REGENTS OF THE UNIVERSITY OF NEBRASKA, priority 2020, published 2023).

SMILES strings stand for the structures. Several values for one entry are separate records, joined by “and”; a condition that tells them apart may be missing. Equal values may be shown once. Entries after “also recorded” stand apart in the source; their conditions may differ. Read-outs that look alike come from different tables or passages of the source.

Usually IC50 stands for the concentration needed to halve the response being measured.

T1 sequence (Q920L2 35-656): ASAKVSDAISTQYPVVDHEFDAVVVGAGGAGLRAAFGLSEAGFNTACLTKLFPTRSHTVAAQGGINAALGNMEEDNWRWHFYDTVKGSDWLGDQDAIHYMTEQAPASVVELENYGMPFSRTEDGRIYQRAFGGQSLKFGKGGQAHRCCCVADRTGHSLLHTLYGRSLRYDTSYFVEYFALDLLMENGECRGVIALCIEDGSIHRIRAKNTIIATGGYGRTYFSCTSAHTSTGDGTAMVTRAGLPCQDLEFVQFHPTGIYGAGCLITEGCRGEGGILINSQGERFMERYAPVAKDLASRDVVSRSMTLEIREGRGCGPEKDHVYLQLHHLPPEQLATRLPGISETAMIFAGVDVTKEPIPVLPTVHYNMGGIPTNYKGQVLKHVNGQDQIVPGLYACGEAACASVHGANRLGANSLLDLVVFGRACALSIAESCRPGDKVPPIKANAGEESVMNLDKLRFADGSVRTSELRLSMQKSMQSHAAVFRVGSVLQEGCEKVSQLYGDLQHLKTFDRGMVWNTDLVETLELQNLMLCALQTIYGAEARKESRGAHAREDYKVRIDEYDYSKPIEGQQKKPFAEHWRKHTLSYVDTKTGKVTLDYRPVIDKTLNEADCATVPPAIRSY
T1 sequence (P21913 31-282): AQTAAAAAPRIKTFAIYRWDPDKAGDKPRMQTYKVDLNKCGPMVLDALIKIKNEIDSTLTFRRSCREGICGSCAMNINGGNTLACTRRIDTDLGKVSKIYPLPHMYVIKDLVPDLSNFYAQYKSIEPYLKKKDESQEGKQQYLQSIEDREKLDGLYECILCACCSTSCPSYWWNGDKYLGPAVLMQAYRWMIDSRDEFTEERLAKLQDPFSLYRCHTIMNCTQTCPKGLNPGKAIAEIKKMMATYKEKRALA
T1 sequence (Q641Z9 1-169): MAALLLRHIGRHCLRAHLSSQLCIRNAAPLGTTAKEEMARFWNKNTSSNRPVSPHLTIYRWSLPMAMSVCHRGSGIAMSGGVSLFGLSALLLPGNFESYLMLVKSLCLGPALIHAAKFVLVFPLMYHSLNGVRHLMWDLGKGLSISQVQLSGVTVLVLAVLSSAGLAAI
T1 sequence (Q6PCT8 57-159): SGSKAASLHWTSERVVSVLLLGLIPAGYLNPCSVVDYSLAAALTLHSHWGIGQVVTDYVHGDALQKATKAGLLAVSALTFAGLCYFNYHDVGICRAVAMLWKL

Consider `CCCCCC(=O)c1c(O)nc(OC)c(OC)c1O` [AA5-16c, reference compound], for which the half-maximal inhibitory concentration (IC50) in series [1] was 6.71 ± 0.8 µM; in series [2], 0.064 µM; in series [4], 25.9 ± 2.4 µM. The ligand-lipophilicity efficiency in series [2] was 5.62. Besides, the cytotoxicity at 20 µM in series [3] (22Rv1, read-out: reduction of 22Rv1 cell viability) is 60%.
Take `COc1[nH]c(=O)c(C(=O)[C@@H](C)C[C@H](C)[C@@H](Cl)CCl)c(O)c1OC` [Atpenin A5, reference compound]: the IC50 in series [2] was 0.0033 µM; in series [2] (listed as atpenin A5), 0.0036 to 0.01 µM; in series [5] (positive control) it was 0.0033 µM. In series [5] (0.1 μM), the “inhibition of CII” value was 93%.
For `COc1ccc(CNC2=NS(=O)(=O)c3cc(Br)ccc3N2)cc1` [Compound 20c, 7-bromo-3-((4-methoxybenzyl)amino)-4H-benzo[e][1,2,4]thiadiazine 1,1-dioxide], the “effect on MDA-MB 468 TNBC cell viability” value in series [1] is on record as “potent activity”. Moreover, the inhibition at 100 µM in series [5] (setting [7]) was 64%. In series [5] (isolated rat heart mitochondria, mean ±SD of n = 4), the 50% inhibitory concentration (IC50) turned out to be 79.7 µM. Further, in series [3], the cytotoxicity at 100 µM was determined as 41%.
In turn, `O=S1(=O)N=C(NCc2ccccc2)Nc2cc(Cl)ccc21` [Compound 21b, 3-(benzylamino)-6-chloro-4H-benzo[e][1,2,4]thiadiazine 1,1-dioxide] showed an IC50 in series [1] of 64.2 ± 14.2 µM. In series [5] (setting [7]), the “inhibition of CII” value was “inactive” and the inhibition at 100 µM was determined as 0%. Further, the cytotoxicity at 100 µM in series [3] is roughly 35%. The “% Inhibition of Proliferation” value in series [6] (20 μM compound, HUVEC, 48 h, relative to VEGF treated cells, mean ± SEM n = 3, 20 µM) is 200±12% and 125±10%. Further, the “inhibition of VEGF-induced HUVEC proliferation (in words)” value (shortened to “inhibition … (in words)”) in series [6] is “suppressed HUVEC proliferation; also recorded: enhanced activity”. In addition, the IC50 in series [4] was found to be 102 ± 16.1 µM.
`O=S1(=O)N=C(NC2CCCC2)Nc2cc(Cl)ccc21` [Compound 22b, 6-chloro-3-(cyclopentylamino)-4H-benzo[e][1,2,4]thiadiazine 1,1-dioxide] returned an IC50 in series [1] of 148 ± 26.3 µM. The cytotoxicity at 100 µM in series [3] was roughly 35%.
For `O=S1(=O)N=C(NCCCc2ccccc2)Nc2cc(Cl)ccc21` [Compound 23b, 6-chloro-3-((3-phenylpropyl)amino)-4H-benzo[e][1,2,4]thiadiazine 1,1-dioxide], the IC50 in series [1] was 91.9 ± 16.8 µM; in series [4], 111 ± 7.4 µM. Moreover, in series [5] (setting [7]), the inhibition at 100 µM came to 30%. Besides, the cytotoxicity at 100 µM in series [3] is roughly 35%. For the same compound, the “inhibition … (in words)” value in series [6] is “suppressed HUVEC proliferation; also recorded: enhanced activity”. Besides, the inhibition at 20 µM in series [6] (setting [8]) was determined as 178 ± 8%.
On to `COc1ccccc1CNC1=NS(=O)(=O)c2cc(F)ccc2N1` [Compound 26a, 7-fluoro-3-((2-methoxybenzyl)amino)-4H-benzo[e][1,2,4]thiadiazine 1,1-dioxide], for which the “effect on MDA-MB 468 TNBC cell viability” value in series [1] is listed as “almost complete amelioration of cell viability”. Besides, the inhibition at 100 µM in series [5] (setting [7]) amounted to 37%. Further, in series [6], the “inhibition … (in words)” value is “no appreciable inhibition”. The inhibition at 20 µM in series [6] (setting [8]) turned out to be 29 ± 33%.
In the case of `O=S1(=O)N=C(NCc2ccc(F)cc2F)Nc2cc(Cl)ccc21` [Compound 29b, 6-chloro-3-((2,4-difluorobenzyl)amino)-4H-benzo[e][1,2,4]thiadiazine 1,1-dioxide], the IC50 in series [1] amounted to 84.6 µM; in series [4] it was 129 ± 12.2 µM. Also, in series [6], the “inhibition … (in words)” value is on record as “suppressed HUVEC proliferation; also recorded: enhanced activity”. Moreover, the inhibition at 20 µM in series [6] (setting [8]) was determined as 167 ± 14%.
Consider `O=S1(=O)N=C(NCCc2c[nH]c3ccccc23)Nc2ccc(F)cc21` [Compound 36a, 3-((2-(1H-indol-3-yl)ethyl)amino)-7-fluoro-4H-benzo[e][1,2,4]thiadiazine 1,1-dioxide], for which the “effect on MDA-MB 468 TNBC cell viability” value in series [1] is listed as “almost complete amelioration of cell viability”. In addition, the inhibition at 100 µM in series [5] (setting [7]) is 17%. The cytotoxicity at 100 µM in series [3] stood at 30%. For the same compound, in series [6], the “inhibition … (in words)” value is given as “no appreciable inhibition”. Further, in series [6] (setting [8]), the inhibition at 20 µM was found to be 41 ± 26%.
For `O=S1(=O)N=C(NCc2ccccc2OC(F)(F)F)Nc2cc(Cl)ccc21` [Compound 43b, 6-Chloro-3-((2-(trifluoromethoxy)benzyl)amino)-4H-benzo[e][1,2,4]thiadiazine 1,1-dioxide], the concentration for half-maximal inhibition (IC50) in series [1] was 14.9 µM; in series [4], 30.5 µM. The “inhibition … (in words)” value in series [6] is on record as “suppressed HUVEC proliferation; also recorded: enhanced activity”. Also, in series [6] (setting [8]), the inhibition at 20 µM was determined as 124 ± 4%.
Turning to `O=S1(=O)N=C(NCCCc2ccccc2)Nc2ccc(Cl)cc21` [Compound 60e, 7-Chloro-3-((3-phenylpropyl)amino)-4H-benzo[e][1,2,4]thiadiazine 1,1-dioxide], the “inhibition … (in words)” value in series [6] is recorded as “suppressed HUVEC proliferation; also recorded: enhanced activity”. Besides, in series [6] (setting [8]), the inhibition at 20 µM turned out to be 92 ± 15%. For the same compound, the IC50 in series [4] came out at 30.9 µM.
For the compound `O=S1(=O)N=C(NCc2ccc(F)cc2F)Nc2ccc(Cl)cc21` [Compound 63e, 7-Chloro-3-((2,4-difluorobenzyl)amino)-4H-benzo[e][1,2,4]thiadiazine 1,1-dioxide], the IC50 in series [1] was found to be 45.5 µM; in series [4], 58.9 ± 13.7 µM. In series [6], the “inhibition … (in words)” value was “suppressed HUVEC proliferation; also recorded: enhanced activity”. Further, the inhibition at 20 µM in series [6] (setting [8]) is 133 ± 12%.
For `O=S1(=O)N=C(NCCCCc2ccccc2)Nc2ccc(Cl)cc21` [Compound 65e, 7-Chloro-3-((4-phenylbutyl)amino)-4H-benzo[e][1,2,4]thiadiazine 1,1-dioxide], the “inhibition … (in words)” value in series [6] was “suppressed HUVEC proliferation; also recorded: enhanced activity”. Moreover, the inhibition at 20 µM in series [6] (setting [8]) was determined as 116 ± 16%. Besides, the IC50 in series [4] stood at 23.4 µM.
Take `O=C(O)CC(=O)O` [Malonate]: the IC50 in series [2] is 40 µM.
Consider `CNC(=O)c1cc(Oc2ccc(NC(=O)Nc3ccc(Cl)c(C(F)(F)F)c3)cc2)ccn1` [Sorafenib, reference compound], for which the IC50 in series [1] was determined as 7.31 ± 1.9 µM; in series [4], 2.95 ± 0.1 µM.
Regarding `O=C(CC(=O)C(F)(F)F)c1cccs1` [Thenoyltrifluoroacetone], the IC50 in series [2] is 30 µM.
With `Cc1c(C)c2c(c(C)c1OC(=O)CCC(=O)O)CC[C@@](C)(CCC[C@H](C)CCC[C@H](C)CCCC(C)C)O2` [α-Tocopheryl succinate], the IC50 in series [2] was 42 µM.
